What all share (type): cell-based
The test system of data set [1] is MDA-MB-231 breast cancer cells. As to the kind of experiment: clonogenic assay (colony formation), MDA-MB-231. The settings on record: Homo sapiens, 336 h; MDA-MB-231, 10 μM analogs, 14 days; read-out: Effect on cell proliferation (colony formation) (% of vehicle control). Here is the method:
To determine if these analogs have anti-migration and anti-invasion activities in different cancer cell lines, transwell migration assays were performed using MDA-MB-231 breast cancer cells (FIG. 3) and HeLa cells (FIG. 5) for all synthetic analogs. […] Next, clonogenic assays were performed on the breast cancer cells treated with the compounds to rule out any indirect effect on cell migration due to cytotoxicity (FIG. 4). MDA-MB-231 cells were allowed to grow for 14 days in six-well plates in the presence or absence of the synthetic compounds at 10 μM.
To rule out any indirect effect on cell migration due to cytotoxicity, clonogenic assays were performed on the breast cancer cells treated with the compounds. MDA-MB-231 cells were allowed to grow for 14 days in six-well plates in the presence or absence of the synthetic compounds at 10 μM. […] For example, analog 3g blocked both cell migration (81.4%) and colony formation (42.7%). For these analogs cytotoxity may have partially contributed to their overall anti-migration effect. The cell toxicity data for all analogs are listed in Table 1 along with anti-migration data for comparison.

The nature of data set [2]: cytotoxicity of additional thiazole compounds (Table 3). Particulars: cell line not given. From the text: (§1) The additional thiazole compounds were synthesized and tested for antimigration efficacy and cytotoxicity, with results shown in TABLE 3.
The nature of data set [3]: antimigration efficacy of additional thiazole compounds (Table 3). Particulars: cell line not given; read-out: IC50 (anti-migration).
Source text: as §1

Take `Nc1nc(-c2ccccc2)cs1` [Compound 2a, 2-Amino-4-phenylthiazole]: the activity at 10 µM in data set [1] is 104%.

As to `O=C(Nc1nc(-c2ccccc2)cs1)c1ccco1` [Compound 3b, N-(4-Phenylthiazol-2-yl)furan-2-carboxamide], the activity at 10 µM in data set [1] turned out to be 98.8%.

Consider `O=C(Nc1nc(-c2ccccc2)cs1)c1ccc(Cl)cc1` [Compound 3c, 4-Chloro-N-(4-phenylthiazol-2-yl)benzamide], for which, in data set [1], the activity at 10 µM was found to be 95%.

As to `O=C(Nc1nc(-c2ccccc2)cs1)c1ccc(Br)cc1` [Compound 3d, 4-Bromo-N-(4-phenylthiazol-2-yl)benzamide], the activity at 10 µM in data set [1] was 98.6%.

As for `COc1cc(C(=O)Nc2nc(-c3ccccc3)cs2)cc(OC)c1OC` [Compound 3e, 3,4,5-Trimethoxy-N-(4-phenylthiazol-2-yl)benzamide], the activity at 10 µM in data set [1] stood at 80.9%.

On to `Cc1ccc(-c2csc(NC(=O)c3cccs3)n2)c(C)c1` [Compound 3f, N-(4-(2,4-Dimethylphenyl)thiazol-2-yl)thiophene-2-carboxamide], for which the activity at 10 µM in data set [1] is 67.5%.

Take `O=C(Nc1nc(-c2ccccc2)cs1)c1cccnc1` [Compound 3h, N-(4-Phenylthiazol-2-yl)nicotinamide]: the activity at 10 µM in data set [1] worked out at 103%.

Regarding `O=C(Nc1nc(-c2ccccc2)cs1)C1CCCC1` [Compound 3k, N-(4-Phenylthiazol-2-yl)cyclopentanecarboxamide], the activity at 10 µM in data set [1] stood at 99.8%.

For the compound `O=C(Nc1nc(-c2ccccc2)cs1)C1CCCCC1` [Compound 3l, N-(4-Phenylthiazol-2-yl)cyclohexanecarboxamide], the activity at 10 µM in data set [1] turned out to be 103%.

`CCCCCC(=O)Nc1nc(-c2ccccc2)cs1` [Compound 3m, N-(4-Phenylthiazol-2-yl)hexanamide]: in data set [1], the activity at 10 µM was determined as 90.7%.

On to `CN(C(=O)c1ccc(Br)cc1)c1nc(-c2ccccc2)cs1` [Compound 4a, 4-Bromo-N-methyl-N-(4-phenylthiazol-2-yl)benzamide], for which the activity at 10 µM in data set [1] worked out at 108%.

`Cc1ccc(-c2csc(N(C)C(=O)c3cccs3)n2)c(C)c1` [Compound 4b, N-(4-(2,4-dimethylphenyl)thiazol-2-yl)-N-methylthiophene-2-carboxamide]: in data set [1], the activity at 10 µM amounted to 97.7%.

Consider `COc1ccc(C(=O)N(C)c2nc(-c3ccccc3)cs2)cc1OC` [Compound 4c, 3,4-Dimethoxy-N-methyl-N-(4-phenylthiazol-2-yl)benzamide], for which the activity at 10 µM in data set [1] came out at 97.1%.

As for `Cn1c(-c2cccc(Cl)c2)csc1=NC(=O)c1ccccc1` [Compound 15e, N-(4-(3-Chlorophenyl)-3-methylthiazol-2(3H)-ylidene)benzamide], in data set [2], the “Cytotoxicity (Survival at 1 μM)” value is 35.2%. Further, the IC50 in data set [3] stood at 367 nM.

On to `Cn1c(-c2cc(C(F)(F)F)cc(C(F)(F)F)c2)csc1=NC(=O)c1ccccc1` [Compound 15f, N-(4-(3,5-Bis(trifluoromethyl)phenyl)-3-methylthiazol-2(3H)-ylidene)benzamide], for which the “Cytotoxicity (Survival at 1 μM)” value in data set [2] came out at 79.8%. Also, the IC50 in data set [3] is 96 nM.

On to `COc1cc(-c2cs/c(=N/C(=O)c3ccccc3)n2C)cc(OC)c1OC` [Compound 15g, N-(4-(3,4,5-Trimethoxyphenyl)-3-methylthiazol-2(3H)-yliene)-benzamide], for which, in data set [2], the “Cytotoxicity (Survival at 1 μM)” value is recorded as 88.4%. Further, in data set [3], the IC50 came out at 1070 nM.

Turning to `Cc1sc(=NC(=O)c2ccccc2)n(C)c1-c1ccccc1` [Compound 15h, N-(3,5-Dimethyl-4-phenylthiazol-2(3H)-ylidene)benzamide], the “Cytotoxicity (Survival at 1 μM)” value in data set [2] stood at 68.4%. Besides, in data set [3], the IC50 amounted to 197 nM.

Turning to `Cc1sc(=NC(=O)c2ccccc2)n(C)c1-c1ccc(F)cc1` [Compound 15i, N-(4-(4-Fluorophenyl)-3,5-dimethylthiazol-2(3H)-ylidene)benzamide], in data set [2], the “Cytotoxicity (Survival at 1 μM)” value is reported as 83.8%. The IC50 in data set [3] came to 847 nM.

On to `Cc1ccc(-c2cn(C)/c(=N\C(=O)c3ccccc3)s2)cc1` [Compound 15j, N-(3-Methyl-5-(p-toyl)thiazol-2(3H)-ylidene)benzamide], for which, in data set [2], the “Cytotoxicity (Survival at 1 μM)” value turned out to be 112.6%. In addition, the IC50 in data set [3] is more than 25000 nM.

With `COc1ccc(C(=O)N=c2scc(-c3cc(OC)c(OC)c(OC)c3)n2C)cc1` [Compound 15k, 4-Methoxy-N-(3-methyl-4-(3,4,5-trimethoxyphenyl)thiazol-2(3H)-ylidene)benzamide], in data set [2], the “Cytotoxicity (Survival at 1 μM)” value stood at 105.6%. The IC50 in data set [3] came to 8000 nM.

Turning to `COc1cc(-c2csc(=NC(=O)c3ccc(Cl)cc3)n2C)cc(OC)c1OC` [Compound 15l, 4-Chloro-N-(3-methyl-4-(3,4,5-trimethoxyphenyl)thiazol-2(3H)-ylidene)benzamide], the “Cytotoxicity (Survival at 1 μM)” value in data set [2] is on record as 77.6%. For the same compound, in data set [3], the IC50 was determined as 758 nM.

In the case of `COc1cccc(C(=O)N=c2scc(-c3cc(OC)c(OC)c(OC)c3)n2C)c1` [Compound 15m, 3-Methoxy-N-(3-methyl-4-(3,4,5-trimethoxyphenyl)thiazol-2(3H)-ylidene)benzamide], the “Cytotoxicity (Survival at 1 μM)” value in data set [2] is listed as 103.5%. Further, in data set [3], the IC50 is more than 50000 nM.

With `Cn1c(C2CC2)csc1=NC(=O)c1ccccc1` [Compound 15n, N-(4-Cyclopropyl-3-methylthiazol-2(3H)-ylidene)benzamide], the “Cytotoxicity (Survival at 1 μM)” value in data set [2] is on record as 90.7%. In data set [3], the IC50 is 104 nM.

Regarding `COc1cc(C(=O)/N=c2/scc(-c3cc(OC)c(OC)c(OC)c3)n2C)cc(OC)c1OC` [Compound 15o, 3,4,5-Trimethoxy-N-(3-methyl-4-(3,4,5-trimethoxyphenyl)thiazol-2(3H)-ylidene) benzamide], the “Cytotoxicity (Survival at 1 μM)” value in data set [2] worked out at 81.5%. Besides, the IC50 in data set [3] stood at 1960 nM.

For the compound `CN(C(=O)c1ccccc1)c1nc(-c2ccccc2Cl)cs1` [Compound 16a, N-(4-(2-Chlorophenyl)thiazol-2-yl)-N-methylbenzamide], the “Cytotoxicity (Survival at 1 μM)” value in data set [2] is given as 88.9%. Further, the IC50 in data set [3] came out at 41.6 nM.

Regarding `CN(C(=O)c1ccccc1)c1nc(-c2cccc(Br)c2)cs1` [Compound 16b, N-(4-(3-Bromophenyl)thiazol-2-yl)-N-methylbenzamide], the “Cytotoxicity (Survival at 1 μM)” value in data set [2] was found to be 104.4%. Besides, the IC50 in data set [3] was determined as 437 nM.

For the compound `CN(C(=O)c1ccccc1)c1nc(-c2ccc(Br)cc2)cs1` [Compound 16c, N-(4-(4-Bromophenyl)thiazol-2-yl)-N-methylbenzamide], the “Cytotoxicity (Survival at 1 μM)” value in data set [2] is recorded as 65.4%. The IC50 in data set [3] is 317 nM.

Consider `COc1cc(-c2csc(N(C)C(=O)c3ccccc3)n2)cc(OC)c1OC` [Compound 16d, N-Methyl-N-(4-(3,4,5-trimethoxyphenyl)thiazol-2-yl)benzamide], for which, in data set [2], the “Cytotoxicity (Survival at 1 μM)” value came out at 96.4%. Moreover, in data set [3], the IC50 stood at 10000 nM.

On to `Cc1sc(N(C)C(=O)c2ccccc2)nc1-c1ccc(F)cc1` [Compound 16e, N-(4-(4-Fluorophenyl)-5-methylthiazol-2-yl)-N-methylbenzamide], for which the “Cytotoxicity (Survival at 1 μM)” value in data set [2] is recorded as 107.6%. Also, the IC50 in data set [3] stood at 1620 nM.

Regarding `Cc1ccc(-c2cnc(N(C)C(=O)c3ccccc3)s2)cc1` [Compound 16f, N-Methyl-N-(5-(p-tolyl)thiazol-2-yl)benzamide], the “Cytotoxicity (Survival at 1 μM)” value in data set [2] is listed as 59.3%. Also, the IC50 in data set [3] amounted to 1090 nM.

With `COc1ccc(C(=O)N(C)c2nc(-c3cc(OC)c(OC)c(OC)c3)cs2)cc1` [Compound 16g, 4-Methoxy-N-methyl-N-(4-(3,4,5-trimethoxyphenyl)thiazol-2-yl)benzamide], the “Cytotoxicity (Survival at 1 μM)” value in data set [2] was found to be 100.0%. In data set [3], the IC50 came to 312 nM.

Take `COc1ccc(C(=O)N(C)c2nc(-c3cc(OC)c(OC)c(OC)c3)cs2)cc1OC` [Compound 16h, 3,4-Dimethoxy-N-methyl-N-(4-(3,4,5-trimethoxyphenyl)thiazol-2-yl)benzamide]: the “Cytotoxicity (Survival at 1 μM)” value in data set [2] stood at 101.9%. In addition, the IC50 in data set [3] is more than 25000 nM.

On to `COc1ccc(C(=O)N(C)c2nc(-c3cc(OC)c(OC)c(OC)c3)cs2)c(OC)c1` [Compound 16i, 2,4-Dimethoxy-N-methyl-N-(4-(3,4,5-trimethoxyphenyl)thiazol-2-yl)benzamide], for which the “Cytotoxicity (Survival at 1 μM)” value in data set [2] is reported as 118.5%. For the same compound, the IC50 in data set [3] was determined as 5040 nM.

Regarding `COc1cc(C(=O)N(C)c2nc(-c3cc(OC)c(OC)c(OC)c3)cs2)cc(OC)c1OC` [Compound 16j, 3,4,5-Trimethoxy-N-methyl-N-(4-(3,4,5-trimethoxyphenyl)thiazol-2-yl)benzamide], the “Cytotoxicity (Survival at 1 μM)” value in data set [2] is on record as 114.8%. Further, in data set [3], the IC50 was 470 nM.

Take `COc1cc(-c2csc(N(C)C(=O)c3cccc(OC)c3OC)n2)cc(OC)c1OC` [Compound 16k, 2,3-Dimethoxy-N-methyl-N-(4-(3,4,5-trimethoxyphenyl)thiazol-2-yl)benzamide]: the “Cytotoxicity (Survival at 1 μM)” value in data set [2] worked out at 117.6%. Further, the IC50 in data set [3] was 108 nM.

As for `COc1ccccc1C(=O)N(C)c1nc(-c2cc(OC)c(OC)c(OC)c2)cs1` [Compound 16l, 2-Methoxy-N-methyl-N-(4-(3,4,5-trimethoxyphenyl)thiazol-2-yl)benzamide], the “Cytotoxicity (Survival at 1 μM)” value in data set [2] came to 109.3%. In addition, in data set [3], the IC50 is more than 25000 nM.

For `COc1cccc(C(=O)N(C)c2nc(-c3cc(OC)c(OC)c(OC)c3)cs2)c1` [Compound 16m, 3-Methoxy-N-methyl-N-(4-(3,4,5-trimethoxyphenyl)thiazol-2-yl)benzamide], in data set [2], the “Cytotoxicity (Survival at 1 μM)” value is given as 88.9%. The IC50 in data set [3] was 646 nM.

The values above are taken from patent publication US9650369B2, “Anti-migration and anti-invasion thiazole analogs for treatment of cellular proliferative disease” (XAVIER UNIVERSITY OF LOUISIANA, priority 2012, dated 2017).
